Data published in patent EP1881000A1, “Conjugates of 2-fluoro-2-deoxy-glucose and their uses as anti cancer agents” (INSTITUT NATIONAL DE LA SANTE ET DE LA RECHERCHE MEDICALE …, priority 2006, dated 2008).
Several values for one entry are separate records, joined by “and”; a condition that tells them apart may be missing. Identical values can stand only once.

Columns and labels:
[1] = Determination of the Maximum Tolerated Dose (MTD), acute toxicity after a single IP injection; type: in vivo, male OF1 mice; design: key to Clinical State Score (CSS) diarrhoea / Clinical State Score (CSS) rough coat / Clinical State Score (CSS) closed eyes / Clinical State Score (CSS) lethargy / Clinical State Score (CSS) total: per mouse 0 = absent, 1 = present per sign; summed over group; conditions: for dosage inducing high side effects (mainly diarrhoea): as early as Day 1 after IP administration; for MTD at 2 weeks: male, OF1, mouse, in vivo, zero deaths, maximal weight loss 15 % at Day 1, CSS as low as possible; for MTD at 2 weeks / doses inducing 100% mortality: single IP administration; for Number of deaths (day): non-tumour bearing mice; for Clinical State Score (CSS) closed eyes / Clinical State Score (CSS) diarrhoea / Clinical State Score (CSS) lethargy / Clinical State Score (CSS) rough coat / Clinical State Score (CSS) total: group sum
Description: (§1) Drugs were dissolved in a mixture of dimethylacetamide (Sigma) and oleic macrogolglycerides (Labrafil® M1944Cs, Gattefossé) (10:90%, vol/vol).
Initially, the Maximum Tolerated Dose (MTD) after intraperitoneal (IP) administration was determinated.
For MTD determination, study was conducted on male OF1 mice weighing about 30 g, 6-weeks old (Charles River, France). Groups of five to six mice received a single IP injection of each drug at variable doses according to the compound (see Tables 2, 3 and 4).
Individual dose were based on the body weight of each mouse. All the mice received a constant injection volume of 250 µL per 25 g of body weight. A group of seven control mice received the vehicle.
After IP injection, mice were weighed and observed every two days over a 2 week-period to evaluate general clinical state. For each animal, a clinical state score (CSS) was calculated based on the absence (value 0) or presence (value 1) of diarrhoea, lethargy, rough coat and closed eyes. CSS was then calculated per group by summing individual scores. Loss of weight and mortality were also recorded.

B16 melanoma = assay: Antitumour activity in B16-melanoma bearing mice, IP chemotherapy protocol; type: in vivo, C57BL6J male mice; conditions: for Life span of the animals: B16 melanoma-bearing mice; for antitumour activity according to the NCI criteria decisions: in words
Description: as §1
(§2) It is performed in tumour-bearing mice following an IP chemotherapy protocol.
To establish B16 melanoma model, 3 x 10^5 B16F0 cells (ATCC, Manassas, USA; in vitro doubling time of 16 hours) were suspended in 100 µL of phosphate buffer solution (PBS®, life Technologies) and injected into the subcutaneous tissue of the right flank of C57BL6J male mice, 6-weeks-old (Charles River, France) on day zero.
(§3) For both molecules and both animal models, treatment was initiated eight days post tumour grafting, when the tumours had reached a measurable size, corresponding to a calculated tumour weight (CTW) of 40 and 70 mg for B16 and CT-26 models respectively.
(§4) Animals were then randomly divided in both treatment and control groups. […] Two dosages have been evaluated, MTD and 0.75 MTD
(§5) Mice were weighed and observed every two days over a 30-day -period to evaluate general clinical state. Length and width of tumours were measured every two days over a 30-day-period using a dedicated slide calliper.
(§6) The Calculated Tumour Weight (CTW) of each tumour was determined according to the formula: CTW(mg) = L × 1^2 /2 [formula] with L = length in mm and 1= width in mm.
(§7) For subcutaneously growing tumours, antitumour activity is often assessed by using the log10 cell kill (LCK) which is calculated from the following formula: LCK = T-C value in days/3.32 × Td [formula] T is the median time (in days) required for the treatment group tumours to reach a predetermined CTW (e.g. 1000 mg). C is the median time (in days) required for the control group tumours to reach the same CTW. Td is the tumour volume doubling time (in days) estimated from the best fit straight line from a log-linear growth plot of the control group tumours in exponential growth.
(§8) An increase in life span was defined by the ratio of the median survival of drug-treated mice (Mt) versus controls (Mc): a survival Mt/Mc equal or higher than 125 % was sought
(§9) Mean weight loss of the group was used to evaluate treatment side effects. A mean body weight loss of greater 20% was considered to indicate an excessively toxic dosage.

CT-26 colon carcinoma = assay: Antitumour activity in CT-26 colon carcinoma bearing mice, IP chemotherapy protocol; type: in vivo, BALB/c male mice; conditions: for tumour growth inhibition (CTW time-course): CT26 carcinoma, vs non-treated and vehicle-treated groups, p< 0.05; for antitumour activity according to the NCI criteria decisions: in words; for Life span of the animals: CT-26 colon carcinoma-bearing mice
Description: as §1, §2
To establish CT-26 colon carcinoma model, 2.5 x 10^5 CT26 cells (Dr Iaiaih J.Filder of MDAnderson Cancer Center, University of Texas; in vitro doubling time of 20 hours) were suspended in 100 µL of phosphate buffer solution and injected into the subcutaneous tissue of the right flank of BALB/c male mice, 6-weeks-old (Charles River, France) on day zero.
as §3, §4, §5, §6
Considering physiopathological features of the CT26 colon carcinoma model, mainly cachexy, drugs 21a and 40a, were assessed at the lowest dosage, i.e. 0.75 MTD administered at Day 8, Day 12, Day 16.
The reference treatment chlorambucil was given at the MTD dosage according to the same schedule.
as §7, §8, §9

[2] = B16 melanoma, dosage not stated
[3] = B16 melanoma, 75% MTD, IP D8, D12, D16
[4] = B16 melanoma, MTD, IP D8, D12, D16
[5] = CT26 colon carcinoma, dosage not stated
[6] = CT26 colon carcinoma, MTD, IP D8, D12, D16
[7] = CT26 colon carcinoma, 75% MTD, IP D8, D12, D16

In the case of `O=C(O)CCCc1ccc(N(CCCl)CCCl)cc1` [chlorambucil, reference compound], the “dosage inducing high side effects (mainly diarrhoea)” value [1] is reported as at least 0.0175 mmol/kg, the MTD at 2 weeks [1] is reported as 50 µmol/kg and the “Weight loss at day 1” value ([1]; single IP 0.0175 mmol/kg) is reported as 1.4%. The “Number of deaths (day)” value ([1]; single IP 0.0175 mmol/kg) was 0, the “Weight loss at day 1” value ([1]; single IP 0.035 mmol/kg) was 6.1% and the “Number of deaths (day)” value ([1]; single IP 0.035 mmol/kg) was 0. The “Weight loss at day 1” value ([1]; single IP 0.05 mmol/kg) was 12.9%, the “Number of deaths (day)” value ([1]; single IP 0.05 mmol/kg) was 0 and the “Weight loss at day 1” value ([1]; single IP 0.07 mmol/kg) was 13.1%. For the same compound, the “Number of deaths (day)” value ([1]; single IP 0.07 mmol/kg) was 0, the “Weight loss at day 1” value ([1]; single IP 0.09 mmol/kg) was 26% and the “Number of deaths (day)” value ([1]; single IP 0.09 mmol/kg) was 1 (D1). The “Number of deaths (day)” value ([1]; single IP 0.14 mmol/kg) was 4 (D1), the “doses inducing 100% mortality” value [1] was 0.14 mmol/kg and the LCK (B16 melanoma; [2]) was under 0.7. For the same compound, the “Life span of the animals” value (B16 melanoma) was “not”, the “Antitumour Efficacy” value (B16 melanoma; [3]) was “- (LCK < 0.7 inactive drug (-))” and the LCK (B16 melanoma; [3]) was 0.05. For the same compound, the “Survival Mt/Mc” value (B16 melanoma; [3]) was 0.67, the “Weight loss (% max)” value (B16 melanoma; [3]) was 7.3% and the “Antitumour Efficacy” value (B16 melanoma; [4]) was “- (LCK < 0.7 inactive drug (-))”. The LCK (B16 melanoma; [4]) was 0.24, the “Survival Mt/Mc” value (B16 melanoma; [4]) was 1 and the “Weight loss (% max)” value (B16 melanoma; [4]) was 13.6%. The “tumour growth inhibition (CTW time-course)” value (“tumour growth inhibition” for short) (B16 melanoma; B16 melanoma, both MTD and 0,75 MTD dosages, vs non-treated and vehicle-treated groups, p< 0.05) was “failed to induce any tumour growth inhibition”, the “antitumour activity according to the NCI criteria decisions” value (“antitumour activity according” for short) (B16 melanoma; B16 melanoma) was “inactive” and the “antitumour activity according” value (B16 melanoma; B16 melanoma, listed as Chlorambucil) was “failed in exhibiting any antitumour activity”. The “tumour growth inhibition” value (CT-26 colon carcinoma; MTD dosage, same schedule) was “significant tumour growth inhibition”, the LCK (CT-26 colon carcinoma; [5]) was 0.79 and the LCK (CT-26 colon carcinoma; [6]) was 0.79. For the same compound, the “Survival Mt/Mc” value (CT-26 colon carcinoma; [6]) was 0.74, the “Weight loss (% max)” value (CT-26 colon carcinoma; [6]) was 13.9% and the “antitumour activity according” value (CT-26 colon carcinoma; CT26 colon carcinoma) was “discrete antitumour activity”. The “antitumour activity according” value (CT-26 colon carcinoma; CT26 colon carcinoma, listed as Chlorambucil) was “failed in exhibiting any antitumour activity” and the “Life span of the animals” value (CT-26 colon carcinoma) was “not”.

In the case of `CC(=O)OC[C@H]1O[C@@H](Oc2ccc(NC(=O)CNC(=O)CCCc3ccc(N(CCCl)CCCl)cc3)cc2)[C@H](F)[C@@H](OC(C)=O)[C@@H]1OC(C)=O` [Compound 40a, N-{2-[4-(3,4,6-tri-O-acetyl-2-deoxy-2-fluoro-β-D-glucopyranosyloxy)phenyl]amino-2-oxoethyl}-4-{4-[bis(2-chloroethyl)amino]phenyl}butanamide], the “dosage inducing high side effects (mainly diarrhoea)” value [1] is reported as at least 0.07 mmol/kg, the MTD at 2 weeks [1] is reported as 140 µmol/kg and the “Weight loss at day 1” value ([1]; single IP 0.07 mmol/kg) is reported as 6.3%. The “Clinical State Score (CSS) closed eyes” value ([1]; single IP 0.07 mmol/kg) was 0, the “Clinical State Score (CSS) diarrhoea” value ([1]; single IP 0.07 mmol/kg) was 2 and the “Clinical State Score (CSS) lethargy” value ([1]; single IP 0.07 mmol/kg) was 0. For the same compound, the “Clinical State Score (CSS) rough coat” value ([1]; single IP 0.07 mmol/kg) was 0, the “Clinical State Score (CSS) total” value ([1]; single IP 0.07 mmol/kg) was 2 and the “Number of deaths (day)” value ([1]; single IP 0.07 mmol/kg) was 0. The “Weight loss at day 1” value ([1]; single IP 0.14 mmol/kg) was 14.9%, the “Clinical State Score (CSS) closed eyes” value ([1]; single IP 0.14 mmol/kg) was 0 and the “Clinical State Score (CSS) diarrhoea” value ([1]; single IP 0.14 mmol/kg) was 2. For the same compound, the “Clinical State Score (CSS) lethargy” value ([1]; single IP 0.14 mmol/kg) was 0, the “Clinical State Score (CSS) rough coat” value ([1]; single IP 0.14 mmol/kg) was 0 and the “Clinical State Score (CSS) total” value ([1]; single IP 0.14 mmol/kg) was 2. The “Number of deaths (day)” value ([1]; single IP 0.14 mmol/kg) was 0, the “Weight loss at day 1” value ([1]; single IP 0.18 mmol/kg) was 8.2% and the “Clinical State Score (CSS) closed eyes” value ([1]; single IP 0.18 mmol/kg) was 0. The “Clinical State Score (CSS) diarrhoea” value ([1]; single IP 0.18 mmol/kg) was 3, the “Clinical State Score (CSS) lethargy” value ([1]; single IP 0.18 mmol/kg) was 0 and the “Clinical State Score (CSS) rough coat” value ([1]; single IP 0.18 mmol/kg) was 3. For the same compound, the “Clinical State Score (CSS) total” value ([1]; single IP 0.18 mmol/kg) was 6, the “Number of deaths (day)” value ([1]; single IP 0.18 mmol/kg) was 2 and the “Number of deaths (day)” value ([1]; single IP 0.21 mmol/kg) was 3 (D6). For the same compound, the “Weight loss at day 1” value ([1]; single IP 0.28 mmol/kg) was 18.3%, the “Clinical State Score (CSS) closed eyes” value ([1]; single IP 0.28 mmol/kg) was 2 and the “Clinical State Score (CSS) diarrhoea” value ([1]; single IP 0.28 mmol/kg) was 4. The “Clinical State Score (CSS) lethargy” value ([1]; single IP 0.28 mmol/kg) was 2, the “Clinical State Score (CSS) rough coat” value ([1]; single IP 0.28 mmol/kg) was 0 and the “Clinical State Score (CSS) total” value ([1]; single IP 0.28 mmol/kg) was 8. For the same compound, the “Number of deaths (day)” value ([1]; single IP 0.28 mmol/kg) was 2 (D1), the “Number of deaths (day)” value ([1]; single IP 0.42 mmol/kg) was 3(D6) and the “Number of deaths (day)” value ([1]; single IP 0.56 mmol/kg) was 5(D6,7,9,13,15). For the same compound, the “doses inducing 100% mortality” value [1] was 0.56 mmol/kg, the LCK (B16 melanoma; [2]) was “around 1.5” and the “Life span of the animals” value (B16 melanoma) was “increased”. For the same compound, the “Antitumour Efficacy” value (B16 melanoma; [3]) was “++ (1.7 < LCK < 1.9 highly active drug (++))”, the LCK (B16 melanoma; [3]) was 1.81 and the “Survival Mt/Mc” value (B16 melanoma; [3]) was 1.5. The “Weight loss (% max)” value (B16 melanoma; [3]) was 13.6%, the “Antitumour Efficacy” value (B16 melanoma; [4]) was “++ (1.7 < LCK < 1.9 highly active drug (++))” and the LCK (B16 melanoma; [4]) was 1.53. For the same compound, the “Survival Mt/Mc” value (B16 melanoma; [4]) was 0.8, the “Weight loss (% max)” value (B16 melanoma; [4]) was 16.9% and the “antitumour activity according” value (B16 melanoma; B16 melanoma) was “highly active”. The “tumour growth inhibition” value (CT-26 colon carcinoma; 0,75 MTD IP at Day 8, 12 and 16) was “significant tumour growth inhibition”, the LCK (CT-26 colon carcinoma; [5]) was “around 1.5” and the “Antitumour Efficacy” value (CT-26 colon carcinoma; [7]) was “++ (1.7 < LCK < 1.9 highly active drug (++))”. For the same compound, the LCK (CT-26 colon carcinoma; [7]) was 1.52, the “Survival Mt/Mc” value (CT-26 colon carcinoma; [7]) was 1.29 and the “Weight loss (% max)” value (CT-26 colon carcinoma; [7]) was 21% and 21.5%. The “antitumour activity according” value (CT-26 colon carcinoma; CT26 colon carcinoma) was “highly active” and the “Life span of the animals” value (CT-26 colon carcinoma) was “increased”.
